Laboratory results as given in patent publication US12304890B2, “R-type pyridyloxycarboxylic acid, salt and ester derivative thereof, and preparation method therefor, and herbicidal composition and application thereof” (Qingdao Kingagroot Chemical Compound Co., Ltd., priority 2018, dated 2025).

Assays:
Format in all cases: in vivo
[1] = tested on: Echinochloa crusgalli; assay: Post-emergence test experiment, Echinochloa crusgalli; conditions: 1000 g a.i./ha, 3 weeks in greenhouse, fresh weight inhibition
Method in brief: (§1)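 Pot-grown plants, sown 2 weeks earlier and at 2-3 leaves, received a foliar spray of compound in acetone/tween-80 with methyl oleate adjuvant. Effect was expressed as fresh weight inhibition rate after three further greenhouse weeks.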

[2] = tested on: Digitaria sanguinalis; assay: Post-emergence test experiment, Digitaria sanguinalis; conditions: 1000 g a.i./ha, 3 weeks in greenhouse, fresh weight inhibition
Method in brief: as §1

[3] = tested on: Monocotyledonous and dicotyledonous weed seeds and main crop seeds; assay: Post-emergence test experiment, other weeds and crops (Table 4, 1000 g a.i./ha); conditions: 3 weeks in greenhouse, fresh weight inhibition
Method in brief: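 Weed and crop seeds (wheat, corn, rice, soybean, cotton, oilseed, millet, sorghum) sown in soil pots in a greenhouse and sprayed at 2-3 leaf stage, 2 weeks after sowing. Compound in acetone/tween-80 with methyl oleate concentrate (1.5 L/ha) as synergist. Effect recorded as fresh-weight growth inhibition rate.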

## Cc1cn(C)nc1SC(=O)[C@@H](C)Oc1nc(F)c(Cl)c(N)c1Cl [Compound 2-365]
[1]
  Activity level (growth inhibition rate), Echinochloa crusgalli: 5 (Level 5: the growth inhibition rate is greater than 85%)
[2]
  Activity level (growth inhibition rate), Digitaria sanguinalis: 5 (Level 5: the growth inhibition rate is greater than 85%)
[3]
  Activity level (growth inhibition rate), Abutilon theophrasti Medic.: 5 (Level 5: the growth inhibition rate is greater than 85%)
  Activity level (growth inhibition rate), Galium aparine: 5 (Level 5: the growth inhibition rate is greater than 85%)
  Activity level (growth inhibition rate), Monochoria Vaginalis: 5 (Level 5: the growth inhibition rate is greater than 85%)

## Cc1cccc(CSC(=O)C(C)Oc2nc(F)c(Cl)c(N)c2Cl)c1 (centres unmarked) [Compound 2-305]
[1]
  Activity level (growth inhibition rate), Echinochloa crusgalli: 5 (Level 5: the growth inhibition rate is greater than 85%)
[2]
  Activity level (growth inhibition rate), Digitaria sanguinalis: 5 (Level 5: the growth inhibition rate is greater than 85%)
[3]
  Activity level (growth inhibition rate), Abutilon theophrasti Medic.: 5 (Level 5: the growth inhibition rate is greater than 85%)
  Activity level (growth inhibition rate), Galium aparine: 5 (Level 5: the growth inhibition rate is greater than 85%)
  Activity level (growth inhibition rate), Monochoria Vaginalis: 5 (Level 5: the growth inhibition rate is greater than 85%)

## CC(Oc1nc(F)c(Cl)c(N)c1Cl)C(=O)O.CNC (centres unmarked) [Compound 2-7]
[1]
  Activity level (growth inhibition rate), Echinochloa crusgalli: 5 (Level 5: the growth inhibition rate is greater than 85%)
[2]
  Activity level (growth inhibition rate), Digitaria sanguinalis: 5 (Level 5: the growth inhibition rate is greater than 85%)
[3]
  Activity level (growth inhibition rate), Abutilon theophrasti Medic.: 5 (Level 5: the growth inhibition rate is greater than 85%)
  Activity level (growth inhibition rate), Galium aparine: 5 (Level 5: the growth inhibition rate is greater than 85%)
  Activity level (growth inhibition rate), Monochoria Vaginalis: 5 (Level 5: the growth inhibition rate is greater than 85%)

## C[C@@H](Oc1nc(F)c(Cl)c(N)c1Cl)C(=O)OCc1ccc2ccccc2c1 [Compound 2-340]
[1]
  Activity level (growth inhibition rate), Echinochloa crusgalli: 5 (Level 5: the growth inhibition rate is greater than 85%)
[2]
  Activity level (growth inhibition rate), Digitaria sanguinalis: 5 (Level 5: the growth inhibition rate is greater than 85%)
[3]
  Activity level (growth inhibition rate), Abutilon theophrasti Medic.: 5 (Level 5: the growth inhibition rate is greater than 85%)
  Activity level (growth inhibition rate), Galium aparine: 5 (Level 5: the growth inhibition rate is greater than 85%)
  Activity level (growth inhibition rate), Monochoria Vaginalis: 5 (Level 5: the growth inhibition rate is greater than 85%)

## C=CCOC(=O)C(C)(C)OC(=O)C(C)Oc1nc(F)c(Cl)c(N)c1Cl (centres unmarked) [Compound 2-288]
[1]
  Activity level (growth inhibition rate), Echinochloa crusgalli: 5 (Level 5: the growth inhibition rate is greater than 85%)
[2]
  Activity level (growth inhibition rate), Digitaria sanguinalis: 5 (Level 5: the growth inhibition rate is greater than 85%)
[3]
  Activity level (growth inhibition rate), Abutilon theophrasti Medic.: 5 (Level 5: the growth inhibition rate is greater than 85%)
  Activity level (growth inhibition rate), Galium aparine: 5 (Level 5: the growth inhibition rate is greater than 85%)
  Activity level (growth inhibition rate), Monochoria Vaginalis: 5 (Level 5: the growth inhibition rate is greater than 85%)

## COCCCSC(=O)C(C)Oc1nc(F)c(Cl)c(N)c1Cl (centres unmarked) [Compound 2-272]
[1]
  Activity level (growth inhibition rate), Echinochloa crusgalli: 5 (Level 5: the growth inhibition rate is greater than 85%)
[2]
  Activity level (growth inhibition rate), Digitaria sanguinalis: 5 (Level 5: the growth inhibition rate is greater than 85%)
[3]
  Activity level (growth inhibition rate), Abutilon theophrasti Medic.: 5 (Level 5: the growth inhibition rate is greater than 85%)
  Activity level (growth inhibition rate), Galium aparine: 5 (Level 5: the growth inhibition rate is greater than 85%)
  Activity level (growth inhibition rate), Monochoria Vaginalis: 5 (Level 5: the growth inhibition rate is greater than 85%)

## CCCCCCCCCOC(=O)[C@@H](C)Oc1nc(F)c(Cl)c(N)c1Cl [Compound 2-175]
[1]
  Activity level (growth inhibition rate), Echinochloa crusgalli: 5 (Level 5: the growth inhibition rate is greater than 85%)
[2]
  Activity level (growth inhibition rate), Digitaria sanguinalis: 5 (Level 5: the growth inhibition rate is greater than 85%)
[3]
  Activity level (growth inhibition rate), Abutilon theophrasti Medic.: 5 (Level 5: the growth inhibition rate is greater than 85%)
  Activity level (growth inhibition rate), Galium aparine: 5 (Level 5: the growth inhibition rate is greater than 85%)
  Activity level (growth inhibition rate), Monochoria Vaginalis: 5 (Level 5: the growth inhibition rate is greater than 85%)

## CC(Oc1nc(F)c(Cl)c(N)c1Cl)C(=O)SC1CCCCC1 (centres unmarked) [Compound 2-266]
[1]
  Activity level (growth inhibition rate), Echinochloa crusgalli: 5 (Level 5: the growth inhibition rate is greater than 85%)
[2]
  Activity level (growth inhibition rate), Digitaria sanguinalis: 5 (Level 5: the growth inhibition rate is greater than 85%)
[3]
  Activity level (growth inhibition rate), Abutilon theophrasti Medic.: 5 (Level 5: the growth inhibition rate is greater than 85%)
  Activity level (growth inhibition rate), Galium aparine: 5 (Level 5: the growth inhibition rate is greater than 85%)
  Activity level (growth inhibition rate), Monochoria Vaginalis: 5 (Level 5: the growth inhibition rate is greater than 85%)

## C[C@@H](Oc1nc(F)c(Cl)c(N)c1Cl)C(=O)OCc1ccoc1 [Compound 2-349]
[1]
  Activity level (growth inhibition rate), Echinochloa crusgalli: 5 (Level 5: the growth inhibition rate is greater than 85%)
[2]
  Activity level (growth inhibition rate), Digitaria sanguinalis: 5 (Level 5: the growth inhibition rate is greater than 85%)
[3]
  Activity level (growth inhibition rate), Abutilon theophrasti Medic.: 5 (Level 5: the growth inhibition rate is greater than 85%)
  Activity level (growth inhibition rate), Galium aparine: 5 (Level 5: the growth inhibition rate is greater than 85%)
  Activity level (growth inhibition rate), Monochoria Vaginalis: 5 (Level 5: the growth inhibition rate is greater than 85%)

## COC(=O)[C@@H](C)Oc1nc(F)c(Cl)c(NC(C)=O)c1Cl [Compound 2-377]
[1]
  Activity level (growth inhibition rate), Echinochloa crusgalli: 5 (Level 5: the growth inhibition rate is greater than 85%)
[2]
  Activity level (growth inhibition rate), Digitaria sanguinalis: 5 (Level 5: the growth inhibition rate is greater than 85%)
[3]
  Activity level (growth inhibition rate), Abutilon theophrasti Medic.: 5 (Level 5: the growth inhibition rate is greater than 85%)
  Activity level (growth inhibition rate), Galium aparine: 5 (Level 5: the growth inhibition rate is greater than 85%)
  Activity level (growth inhibition rate), Monochoria Vaginalis: 5 (Level 5: the growth inhibition rate is greater than 85%)

## CCCCCCSC(=O)[C@@H](C)Oc1nc(F)c(Cl)c(N)c1Cl [Compound 2-102]
[1]
  Activity level (growth inhibition rate), Echinochloa crusgalli: 5 (Level 5: the growth inhibition rate is greater than 85%)
[2]
  Activity level (growth inhibition rate), Digitaria sanguinalis: 5 (Level 5: the growth inhibition rate is greater than 85%)
[3]
  Activity level (growth inhibition rate), Abutilon theophrasti Medic.: 5 (Level 5: the growth inhibition rate is greater than 85%)
  Activity level (growth inhibition rate), Galium aparine: 5 (Level 5: the growth inhibition rate is greater than 85%)
  Activity level (growth inhibition rate), Monochoria Vaginalis: 5 (Level 5: the growth inhibition rate is greater than 85%)

## CC(Oc1nc(F)c(Cl)c(N)c1Cl)C(=O)OC1CC1 (centres unmarked) [Compound 2-263]
[1]
  Activity level (growth inhibition rate), Echinochloa crusgalli: 5 (Level 5: the growth inhibition rate is greater than 85%)
[2]
  Activity level (growth inhibition rate), Digitaria sanguinalis: 5 (Level 5: the growth inhibition rate is greater than 85%)
[3]
  Activity level (growth inhibition rate), Abutilon theophrasti Medic.: 5 (Level 5: the growth inhibition rate is greater than 85%)
  Activity level (growth inhibition rate), Galium aparine: 5 (Level 5: the growth inhibition rate is greater than 85%)
  Activity level (growth inhibition rate), Monochoria Vaginalis: 5 (Level 5: the growth inhibition rate is greater than 85%)

## C[C@@H](Oc1nc(F)c(Cl)c(N)c1Cl)C(=O)Sc1ccc2ccccc2c1 [Compound 2-339]
[1]
  Activity level (growth inhibition rate), Echinochloa crusgalli: 5 (Level 5: the growth inhibition rate is greater than 85%)
[2]
  Activity level (growth inhibition rate), Digitaria sanguinalis: 5 (Level 5: the growth inhibition rate is greater than 85%)
[3]
  Activity level (growth inhibition rate), Abutilon theophrasti Medic.: 5 (Level 5: the growth inhibition rate is greater than 85%)
  Activity level (growth inhibition rate), Galium aparine: 5 (Level 5: the growth inhibition rate is greater than 85%)
  Activity level (growth inhibition rate), Monochoria Vaginalis: 5 (Level 5: the growth inhibition rate is greater than 85%)

## C[C@@H](Oc1nc(F)c(Cl)c(N)c1Cl)C(=O)Sc1ccncc1 [Compound 2-363]
[1]
  Activity level (growth inhibition rate), Echinochloa crusgalli: 5 (Level 5: the growth inhibition rate is greater than 85%)
[2]
  Activity level (growth inhibition rate), Digitaria sanguinalis: 5 (Level 5: the growth inhibition rate is greater than 85%)
[3]
  Activity level (growth inhibition rate), Abutilon theophrasti Medic.: 5 (Level 5: the growth inhibition rate is greater than 85%)
  Activity level (growth inhibition rate), Galium aparine: 5 (Level 5: the growth inhibition rate is greater than 85%)
  Activity level (growth inhibition rate), Monochoria Vaginalis: 5 (Level 5: the growth inhibition rate is greater than 85%)

## CC(Oc1nc(F)c(Cl)c(N)c1Cl)C(=O)OC1CCCC1 (centres unmarked) [Compound 2-265]
[1]
  Activity level (growth inhibition rate), Echinochloa crusgalli: 5 (Level 5: the growth inhibition rate is greater than 85%)
[2]
  Activity level (growth inhibition rate), Digitaria sanguinalis: 5 (Level 5: the growth inhibition rate is greater than 85%)
[3]
  Activity level (growth inhibition rate), Abutilon theophrasti Medic.: 5 (Level 5: the growth inhibition rate is greater than 85%)
  Activity level (growth inhibition rate), Galium aparine: 5 (Level 5: the growth inhibition rate is greater than 85%)
  Activity level (growth inhibition rate), Monochoria Vaginalis: 5 (Level 5: the growth inhibition rate is greater than 85%)

## CCCC(C)OC(=O)[C@@H](C)Oc1nc(F)c(Cl)c(N)c1Cl (some centres unmarked) [Compound 2-93]
[1]
  Activity level (growth inhibition rate), Echinochloa crusgalli: 5 (Level 5: the growth inhibition rate is greater than 85%)
[2]
  Activity level (growth inhibition rate), Digitaria sanguinalis: 5 (Level 5: the growth inhibition rate is greater than 85%)
[3]
  Activity level (growth inhibition rate), Abutilon theophrasti Medic.: 5 (Level 5: the growth inhibition rate is greater than 85%)
  Activity level (growth inhibition rate), Galium aparine: 5 (Level 5: the growth inhibition rate is greater than 85%)
  Activity level (growth inhibition rate), Monochoria Vaginalis: 5 (Level 5: the growth inhibition rate is greater than 85%)
